Experimental data taken from EP2209789B1, “C[…] INDOLOB[…] NS5B INHIBITORS” (Bristol-Myers Squibb Company, priority 2007, dated 2009).

How the values were obtained:
HCV replicon = HCV replicon FRET / luciferase assay; format: cell-based
Procedure: FRET Assay Preparation. The HCV FRET screening assay was performed in 96-well cell culture plates. The FRET peptide (Anaspec, Inc.) (Taliani et al., Anal. Biochem. 1996, 240, 60-67) contains a fluorescence donor, EDANS, near one end of the peptide and an acceptor, DABCYL, near the other end. The fluorescence of the peptide is quenched by […] resonance energy transfer (RET) between the donor and the acceptor, but as the NS3 protease cleaves the peptide the products are released from RET quenching and the fluorescence of the donor becomes apparent. The assay reagent was made as follows: 5X cell Luciferase cell culture lysis reagent from Promega (#E153A) diluted to 1X with dH2O, NaCl added to 150 mM final, the FRET peptide diluted to 20 µM final from a 2 mM stock.
To prepare plates, HCV replicon cells, with or without a Renilla luciferase reporter gene, were trypsinized and plated in a 96-well plate with titrated test compounds added in columns 3 through 12; columns 1 and 2 contained a control compound (HCV control inhibitor), and the bottom row contained cells with DMSO only. The plates were then placed in a CO2 incubator at 37 °C.
Assays. Subsequent to addition of the test compounds described above (FRET Assay Preparation), at various times the plate was removed and Alamar blue solution (Trek Diagnostics, #00-100) was added to measure cellular toxicity. After reading in a Cytoflour 4000 instrument (PE Biosystems), plates were rinsed with PBS and then used for FRET assay by the addition of 30 ul of the FRET peptide assay reagent described above (FRET Assay Preparation) per well. The plate was then placed into the Cytoflour 4000 instrument which had been set to 340 excite/490 emission, automatic mode for up to 20 cycles and the plate read in a kinetic mode. Typically, the signal to noise using an endpoint analysis after the reads was at least three-fold. Alternatively, after Alamar blue reading, plates were rinsed with PBS, then used for luciferase assay using the Promega Dual-Glo Luciferase Assay System or the Promega EnduRen Live Cell Substrate assay.
Compound analysis was performed by quantification of the relative HCV replicon inhibition and the relative cytotoxicity values. To calculate cytoxicity values, the average Alamar Blue fluorescence signals from the control wells were set as 100% non-toxic. The individual signals in each of the compound test wells were then divided by the average control signal and multiplied by 100% to determine […]. To calculate the HCV replicon inhibition values, an average background value was obtained from the two wells containing the highest amount of HCV control inhibitor at the end of the assay period. These numbers were similar to those obtained from naïve Huh-7 cells. The background numbers were then subtracted from the average signal obtained from the control wells and this number was used as 100% activity. The individual signals in each of the compound test wells were then divided by the averaged control values after background subtraction and multiplied by 100% to determine percent activity. […] The two numbers generated for the compound plate, percent cytoxicity and percent activity, were used to determine compounds of interest for further analysis.

HCV NS5B = biological target: T1, HCV NS5B (Hepatitis C virus genotype 1b, UniProt Q9WMX2); experiment: HCV NS5B RdRp enzyme assay (standard or modified); format: biochemical; conditions: HCV RdRp genotype 1b enzyme; not stated whether standard or modified assay
T1 construct: The cDNA encoding the NS5B protein of HCV, genotype 1b; made in house; host or cells: E. coli BL21(DE3)
Procedure: HCV NS5B RdRp cloning, expression, and purification. The cDNA encoding the NS5B protein of HCV, genotype 1b, was cloned into the pET21a expression vector. The protein was expressed with an 18 amino acid C-terminal truncation to enhance the solubility. The E. coli competent cell line BL21(DE3) was used for expression of the protein. Cultures were grown at 37 °C for ~ 4 hours until the cultures reached an optical density of 2.0 at 600 nm. The cultures were cooled to 20 °C and induced with 1 mM IPTG. Fresh ampicillin was added to a final concentration of 50 µg/ml and the cells were grown overnight at 20 °C.
The lysis buffer consisted of 20 mM Tris-HCl, pH 7.4, 500 mM NaCl, 0.5% triton X-100, 1 mM DTT, 1 mM EDTA, 20% glycerol, 0.5 mg/ml lysozyme, 10 mM MgCl2, 15 ug/ml deoxyribonuclease I, and Complete TM protease inhibitor tablets (Roche). After addition of the lysis buffer, frozen cell pellets were resuspended using a tissue homogenizer. To reduce the viscosity of the sample, aliquots of the lysate were sonicated on ice using a microtip attached to a Branson sonicator. The sonicated lysate was centrifuged at 100,000 x g for Ihr at 4 °C and filtered through a 0.2 µm filter unit (Coming).
The protein was purified using two sequential chromatography steps: Heparin sepharose CL-6B and polyU sepharose 4B (Pharmacia). The chromatography buffers were identical to the lysis buffer but contained no lysozyme, deoxyribonuclease I, MgCl2 or protease inhibitor and the NaCl concentration of the buffer was adjusted according to the requirements for charging the protein onto the column. Each column was eluted with a NaCl gradient which varied in length from 5-50 column volumes depending on the column type. […] The enzyme was aliquoted and stored at -80 °C.
Standard HCV NSSB RdRp enzyme assay. HCV RdRp genotype 1b assays were run in a final volume of 60 µl in 96 well plates (Coming 3600). The assay buffer is composed of 20 mM Hepes, pH 7.5, 2.5 mM KCl, 2.5 mM MgCl2, 1 mM DTT, 1.6 U RNAse inhibitor (Promega N2515), 0.01 mg/ml BSA (Sigma B6917), and 2 % glycerol. All compounds were serially diluted (3-fold) in DMSO and diluted further in water such that the final concentration of DMSO in the assay was 2%. HCV RdRp genotype 1b enzyme was used at a final concentration of 28 nM. A polyA template was used at 6 nM, and a biotinylated oligo-dT12 primer was used at 180 nM final concentration. Template was obtained commercially (Amersham 27-4110). Biotinylated primer was prepared by Sigma Genosys. 3H-UTP was used at 0.6 µCi (0.29 µM total UTP). Reactions were initiated by the addition of enzyme, incubated at 30 °C for 60 min, and stopped by adding 25 µl of 50 mM EDTA containing SPA beads (4 µg/µl, Amersham RPNQ 0007). Plates were read on a Packard Top Count NXT after >1hr incubation at room temperature.
Modified HCV NS5B RdRp enzyme assay. A modified enzyme assay was performed essentially as described for the standard enzyme assay except for the following: The biotinylated oligo dT12 primer was precaptured on streptavidin-coated SPA beads by mixing primer and beads in assay buffer and incubating at room temperature for one hour. Unbound primer was removed after centrifugation. The primer-bound beads were resuspended in 20 mM Hepes buffer, pH 7.5 and used in the assay at final concentrations of 20 nM primer and 0.67 µg/µl beads. Order of addition in the assay: enzyme (1.75 nM) was added to diluted compound followed by the addition of a mixture of template (0.36 nM), 3H-UTP (0.6 µCi, 0.29 µM), and primer-bound beads, to initiate the reaction; concentrations given are final. Reactions were allowed to proceed for 4 hours at 30° C.
IC50 values for compounds were determined using seven different [I].

[1] = HCV replicon cells, 50% reduction in FRET or luciferase activity

T1 sequence (Q9WMX2 2420-2992): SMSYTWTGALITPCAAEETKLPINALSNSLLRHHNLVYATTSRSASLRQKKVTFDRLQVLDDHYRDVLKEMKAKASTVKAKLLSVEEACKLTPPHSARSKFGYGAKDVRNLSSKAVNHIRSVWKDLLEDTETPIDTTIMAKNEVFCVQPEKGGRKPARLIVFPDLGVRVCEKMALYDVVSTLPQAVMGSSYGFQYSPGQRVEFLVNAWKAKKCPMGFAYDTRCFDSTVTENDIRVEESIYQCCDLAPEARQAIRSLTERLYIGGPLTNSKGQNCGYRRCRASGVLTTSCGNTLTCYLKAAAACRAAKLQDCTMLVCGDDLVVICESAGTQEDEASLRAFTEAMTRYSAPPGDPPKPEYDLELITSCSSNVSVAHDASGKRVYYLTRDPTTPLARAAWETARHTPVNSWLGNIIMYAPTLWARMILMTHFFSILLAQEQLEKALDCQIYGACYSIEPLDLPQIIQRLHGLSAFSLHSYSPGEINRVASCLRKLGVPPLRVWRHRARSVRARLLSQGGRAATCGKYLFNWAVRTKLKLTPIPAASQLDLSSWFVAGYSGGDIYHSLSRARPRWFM

| Compound | EC50 (HCV replicon; Hepatitis C virus) [nM] | EC50 (HCV replicon; [1]) [nM] | IC50 (HCV NS5B) [nM] |
| --- | --- | --- | --- |
| COc1ccc2c(c1)C1CC1(C(=O)N1C3CCC1CN(C)C3)Cn1c-2c(C2CCCCC2)c2ccc(C(=O)NS(=O)(=O)CC(F)F)cc21 (stereo not shown) | 1 to 500 | – | – |
| COc1ccc2c(c1)C1CC1(C(=O)N1C3CCC1CN(C)C3)Cn1c-2c(C2CCCCC2)c2ccc(C(=O)NS(=O)(=O)C3CCC3)cc21 (stereo not shown) [drawing 40] | – | 1 to 500 | 1 to 500 |
| COc1ccc2c(c1)C1CC1(C(=O)N1C3CCC1CN(C)C3)Cn1c-2c(C2CCCCC2)c2ccc(C(=O)NS(=O)(=O)C(F)(F)F)cc21 (stereo not shown) | 1 to 500 | – | – |
| COc1ccc2c(c1)C1CC1(C(=O)N1C3CCC1CN(C)C3)Cn1c-2c(C2CCCCC2)c2ccc(C(=O)NS(=O)(=O)CC(C)C)cc21 (stereo not shown) | 1 to 500 | – | 1 to 500 |
| COc1ccc2c(c1)C1CC1(C(=O)N1C3CCC1CN(C)C3)Cn1c-2c(C2CCCCC2)c2ccc(C(=O)NS(=O)(=O)C(C)(C)C)cc21 (stereo not shown) | 1 to 500 | – | 1 to 500 |
| COc1ccc2c(c1)C1CC1(C(=O)N1C3CCC1CN(C)C3)Cn1c-2c(C2CCCCC2)c2ccc(C(=O)NS(=O)(=O)CCC(F)(F)F)cc21 (stereo not shown) | 1 to 500 | – | 1 to 500 |
| CC(C)S(=O)(=O)NC(=O)c1ccc2c(C3CCCCC3)c3n(c2c1)CC1(C(=O)N2C4CCC2CN(C)C4)CC1c1ccccc1-3 (stereo not shown) | 1 to 500 | – | 1 to 500 |
| CCN(CC)C(=O)N1CC2CCC(C1)N2C(=O)C12CC1c1cc(OC)ccc1-c1c(C3CCCCC3)c3ccc(C(=O)NS(=O)(=O)C4CC4)cc3n1C2 (stereo not shown) | 1 to 500 | – | – |
| COc1ccc2c(c1)C1CC1(C(=O)N1C3CCC1CN(C)C3)Cn1c-2c(C2CCCCC2)c2ccc(C(=O)NS(=O)(=O)C(C)C)cc21 (stereo not shown) | 1 to 500 | – | – |
| COc1ccc2c(c1)C1CC1(C(=O)N1C3CCC1CN(C)C3)Cn1c-2c(C2CCCCC2)c2ccc(C(=O)NS(=O)(=O)CC(F)(F)F)cc21 (stereo not shown) | 1 to 500 | – | 1 to 500 |
| CN1CC2CCC(C1)N2C(=O)C12CC1c1ccccc1-c1c(C3CCCCC3)c3ccc(C(=O)NS(=O)(=O)N(C)C)cc3n1C2 (stereo not shown) | 1 to 500 | – | 1 to 500 |
| CCN(CC)C(=O)N1CC2CCC(C1)N2C(=O)C12CC1c1cc(OC)ccc1-c1c(C3CCCCC3)c3ccc(C(=O)NS(=O)(=O)N4CCN(C)CC4)cc3n1C2 (stereo not shown) | 1 to 500 | – | – |
| CCCCS(=O)(=O)NC(=O)c1ccc2c(C3CCCCC3)c3n(c2c1)CC1(C(=O)N2C4CCC2CN(C)C4)CC1c1cc(OC)ccc1-3 (stereo not shown) | 1 to 500 | – | – |
| CCC(CC)S(=O)(=O)NC(=O)c1ccc2c(C3CCCCC3)c3n(c2c1)CC1(C(=O)N2C4CCC2CN(C)C4)CC1c1cc(OC)ccc1-3 (stereo not shown) | > 110 | – | – |
| CCCS(=O)(=O)NC(=O)c1ccc2c(C3CCCCC3)c3n(c2c1)CC1(C(=O)N2C4CCC2CN(C)C4)CC1c1cc(OC)ccc1-3 (stereo not shown) | 1 to 500 | – | 1 to 500 |
| COc1ccc2c(c1)[C@H]1C[C@@]1(C(=O)N1C3CCC1CN(C)C3)Cn1c-2c(C2CCCCC2)c2ccc(C(=O)NS(=O)(=O)C(C)C)cc21 | 1 to 500 | – | – |
| COc1ccc2c(c1)[C@@H]1C[C@]1(C(=O)N1C3CCC1CN(C)C3)Cn1c-2c(C2CCCCC2)c2ccc(C(=O)NS(=O)(=O)CC(C)C)cc21 | 1 to 500 | – | 1 to 500 |
| COc1ccc2c(c1)C1CC1(C(=O)N1C3CCC1CN(C)C3)Cn1c-2c(C2CCCCC2)c2ccc(C(=O)NS(=O)(=O)C3CCCC3)cc21 (stereo not shown) | 1 to 500 | – | 1 to 500 |
| COc1ccc2c(c1)C1CC1(C(=O)N1C3CCC1CN(C)C3)Cn1c-2c(C2CCCCC2)c2ccc(C(=O)NS(=O)(=O)C3CCC3)cc21 (stereo not shown) [drawing 51] | 1 to 500 | – | – |
| CCC(C)S(=O)(=O)NC(=O)c1ccc2c(C3CCCCC3)c3n(c2c1)CC1(C(=O)N2C4CCC2CN(C)C4)CC1c1cc(OC)ccc1-3 (stereo not shown) [drawing 45] | 1 to 500 | – | 1 to 500 |
| COc1ccc2c(c1)C1CC1(C(=O)N1C3CCC1CN(C)C3)Cn1c-2c(C2CCCCC2)c2ccc(C(=O)NS(=O)(=O)C3CCCCC3)cc21 (stereo not shown) | 1 to 500 | – | – |
| CCC(C)S(=O)(=O)NC(=O)c1ccc2c(C3CCCCC3)c3n(c2c1)CC1(C(=O)N2C4CCC2CN(C)C4)CC1c1cc(OC)ccc1-3 (stereo not shown) [drawing 52] | – | 1 to 500 | 1 to 500 |
